Our source for the EC50 values is patent publication US9447051B2, “Diaminopyrimidines and uses thereof” (AbbVie inc., priority 2012, dated 2016).

Usually EC50 stands for the concentration at which the effect is half-maximal.

Each structure is given as a SMILES string.

The assay deals with RSV (Group A, Long Strain). The experiment in a line: Antiviral (RSV) assay: cytopathetic effect (CPE) protection assay in HEp-2 cells, MTT readout. In kind it is cell-based, human respiratory syncytial virus (RSV). Conditions: human respiratory syncytial virus, HEp-2, 96 h, Table 1, 0.2 MOI RSV, 4 days incubation, protection from CPE. The method, then: HEp-2 cells and RSV (Group A, Long Strain) were obtained from the American Type Culture Collection (Manassas, Va.). A cytopathetic effect (CPE) protection assay was performed to determine the ability of a compound to protect the cells from viral infection and thus the CPE induced by viral infection. 96-well plates were first seeded with 3×10^3 HEp-2 cells per well in Dulbecco's modified Eagle's medium (DMEM) containing 10% fetal bovine serum (FBS). One day after the cells were seeded, they were preincubated with serial dilutions of compounds prepared in 100 μL assay medium (DMEM mixed with F12 medium at a 1:1 ratio, supplemented with 2% FBS and 1 mM sodium pyruvate) for 1 hour at 37° C. 100 μL of assay medium containing 0.2 multiplicity of infection (MOI) of RSV was then added to each well of cells. In addition to wells containing infected cells incubated with compounds, each plate also contained replicates of two kinds of controls: (1) Virus control contained cells infected with 0.2 MOI of RSV in assay medium, (2) Uninfected cell control contained cells incubated with assay medium only. After 4 days of incubation at 37° C., the viability of cells was assessed using MTT (Thiazolyl blue tetrazolium bromide, Sigma). A stock solution of MTT, at a concentration of 4 mg/mL in phosphate-buffered saline, was added to all wells at 25 μL per well. Plates were further incubated for 4 hours, and each well was then treated with 50 μL of a solution containing 20% sodium dodecyl sulfate (SDS) and 0.02 N HCl. After an overnight incubation, the plates were measured on a BioTek® microtiter plate reader at wavelengths of 570 nm and 650 nm. The MTT detection is based on the fact that viable (uninfected) cells can reduce the tetrazolium salts into colored formazan products, which can then be quantitated by spectrometry. […] Compounds were tested to determine both their antiviral and toxicity to determine their therapeutic window. Determination of the EC50 and TD50 of these active compounds were repeated one additional time to confirm the window.

Consider `Cc1nc(NCc2ccccn2)nc(N[C@H]2CCCC[C@H]2CO)c1C` (racemic) [Example 43, rac-[(1R,2S)-2-({5,6-dimethyl-2-[(pyridin-2-ylmethyl)amino]pyrimidin-4-yl}amino)cyclohexyl]methanol], for which the EC50 came out at 0.19 µM.

Consider `Cc1nc(NCc2ccccc2)nc(NC2CCCCC2)c1C` [Example 5, N^2-benzyl-N^4-cyclohexyl-5,6-dimethylpyrimidine-2,4-diamine], for which the EC50 amounted to 0.24 µM.

Consider `Cc1nc(NCc2cccnc2)nc(NC2CCCCC2)c1C` [Example 6, N^4-cyclohexyl-5,6-dimethyl-N^2-(pyridin-3-ylmethyl)pyrimidine-2,4-diamine], for which a half-maximal effect (EC50) was put at 0.24 µM.

As to `Cc1ccc(O)c(CNc2nc(C)c(C)c(NC3CCCCC3)n2)n1` [Example 7, 2-({[4-(cyclohexylamino)-5,6-dimethylpyrimidin-2-yl]amino}methyl)-6-methylpyridin-3-ol], the EC50 is greater than 12 µM.

For the molecule `COc1ccc(CNc2nc(C)c(C)c(NC3CCCCC3)n2)cc1` [Example 8, N^4-cyclohexyl-N^2-(4-methoxybenzyl)-5,6-dimethylpyrimidine-2,4-diamine], the EC50 was greater than 3.7 µM.

For `Cc1nc(NCc2ccc(F)cc2)nc(NC2CCCCC2)c1C` [Example 9, N^4-cyclohexyl-N^2-(4-fluorobenzyl)-5,6-dimethylpyrimidine-2,4-diamine], the EC50 is greater than 3 µM.

In turn, `Cc1nc(NCc2ccc(OC(F)(F)F)cc2)nc(NC2CCCCC2)c1C` [Example 10, N^4-cyclohexyl-5,6-dimethyl-N^2-[4-(trifluoromethoxy)benzyl]pyrimidine-2,4-diamine] displayed an EC50 greater than 1.5 µM.

In turn, `Cc1nc(NCc2ccc(C(C)C)cc2)nc(NC2CCCCC2)c1C` [Example 11, N^4-cyclohexyl-N^2-(4-isopropylbenzyl)-5,6-dimethylpyrimidine-2,4-diamine] showed an EC50 greater than 2 µM.

The molecule `Cc1nc(NCc2ccc(C(F)(F)F)cc2)nc(NC2CCCCC2)c1C` [Example 12, N^4-cyclohexyl-5,6-dimethyl-N^2-[4-(trifluoromethyl)benzyl]pyrimidine-2,4-diamine] came in with an EC50 greater than 0.95 µM.

Take `Cc1nc(NCc2cccc(F)c2)nc(NC2CCCCC2)c1C` [Example 13, N^4-cyclohexyl-N^2-(3-fluorobenzyl)-5,6-dimethylpyrimidine-2,4-diamine]: the EC50 is greater than 1 µM.

`Cc1nc(NCc2ccn[nH]2)nc(NC2CCCCC2)c1C` [Example 14, N^4-cyclohexyl-5,6-dimethyl-N^2-(1H-pyrazol-5-ylmethyl)pyrimidine-2,4-diamine] had an EC50 of 0.84 µM.

In the case of `Cc1nc(N[C@H](C)c2ccccc2)nc(NC2CCCCC2)c1C` [Example 15, N^4-cyclohexyl-5,6-dimethyl-N^2-[(1R)-1-phenylethyl]pyrimidine-2,4-diamine], the EC50 is greater than 1.9 µM.

On to `Cc1nc(N[C@@H](C)c2ccccc2)nc(NC2CCCCC2)c1C` [Example 16, N^4-cyclohexyl-5,6-dimethyl-N^2-[(1S)-1-phenylethyl]pyrimidine-2,4-diamine], for which the EC50 was greater than 3.7 µM.

In the case of `Cc1ccnc(CNc2nc(C)c(C)c(NC3CCCCC3)n2)c1` [Example 17, N^4-cyclohexyl-5,6-dimethyl-N^2-[(4-methylpyridin-2-yl)methyl]pyrimidine-2,4-diamine], a half-maximal response (EC50) required 0.034 µM.

`COc1ccnc(CNc2nc(C)c(C)c(NC3CCCCC3)n2)c1` [Example 18, N^4-cyclohexyl-N^2-[(4-methoxypyridin-2-yl)methyl]-5,6-dimethylpyrimidine-2,4-diamine] came in with an EC50 of 0.31 µM.

Regarding `Cc1cccc(CNc2nc(C)c(C)c(NC3CCCCC3)n2)n1` [Example 19, N^4-cyclohexyl-5,6-dimethyl-N^2-[(6-methylpyridin-2-yl)methyl]pyrimidine-2,4-diamine], the EC50 was 0.59 µM.

In the case of `Cc1nc(NCc2ccc(C(F)(F)F)cn2)nc(NC2CCCCC2)c1C` [Example 20, N^4-cyclohexyl-5,6-dimethyl-N^2-{[5-(trifluoromethyl)pyridin-2-yl]methyl}pyrimidine-2,4-diamine], the EC50 is greater than 8.7 µM.

For the molecule `Cc1nc(NCc2cc(C(C)(C)C)ccn2)nc(NC2CCCCC2)c1C` [Example 21, N^2-[(4-tert-butylpyridin-2-yl)methyl]-N^4-cyclohexyl-5,6-dimethylpyrimidine-2,4-diamine], the EC50 is greater than 6.1 µM.

In turn, `Cc1nc(NCc2cccs2)nc(NC2CCCCC2)c1C` [Example 22, N^4-cyclohexyl-5,6-dimethyl-N^2-(2-thienylmethyl)pyrimidine-2,4-diamine] came in with an EC50 of 0.069 µM.

In the case of `Cc1nc(NCc2c(C)noc2C)nc(NC2CCCCC2)c1C` [Example 23, N^4-cyclohexyl-N^2-[(3,5-dimethyl-1,2-oxazol-4-yl)methyl]-5,6-dimethylpyrimidine-2,4-diamine], the EC50 is greater than 10 µM.

For the molecule `Cc1nc(NCc2cn(C)cn2)nc(NC2CCCCC2)c1C` [Example 24, N^4-cyclohexyl-5,6-dimethyl-N^2-[(1-methyl-1H-imidazol-4-yl)methyl]pyrimidine-2,4-diamine], the EC50 is 0.045 µM.

As for `COc1cccc(CNc2nc(C)c(C)c(NC3CCCCC3)n2)c1` [Example 25, N^4-cyclohexyl-N^2-(3-methoxybenzyl)-5,6-dimethylpyrimidine-2,4-diamine], the EC50 was greater than 3.4 µM.

`Cc1cccnc1CNc1nc(C)c(C)c(NC2CCCCC2)n1` [Example 26, N^4-cyclohexyl-5,6-dimethyl-N^2-[(3-methylpyridin-2-yl)methyl]pyrimidine-2,4-diamine] came in with an EC50 greater than 5.8 µM.

Turning to `Cc1nc(NCc2cc(Cl)ccn2)nc(NC2CCCCC2)c1C` [Example 27, N^2-[(4-chloropyridin-2-yl)methyl]-N^4-cyclohexyl-5,6-dimethylpyrimidine-2,4-diamine], the EC50 was found to be 0.042 µM.

In turn, `Cc1ccnc(CNc2nc(C)c(C)c(NC3CCC(F)(F)CC3)n2)c1` [Example 28, N^4-(4,4-difluorocyclohexyl)-5,6-dimethyl-N^2-[(4-methylpyridin-2-yl)methyl]pyrimidine-2,4-diamine] gave an EC50 of 0.061 µM.

On to `Cc1nc(NCc2ccccn2)nc(NC2CCCC2)c1C` [Example 29, N^4-cyclopentyl-5,6-dimethyl-N^2-(pyridin-2-ylmethyl)pyrimidine-2,4-diamine], for which a half-maximal response (EC50) required 0.92 µM.

The molecule `Cc1nc(NCc2ccccn2)nc(NC2CCOCC2)c1C` [Example 30, 5,6-dimethyl-N^2-(pyridin-2-ylmethyl)-N^4-(tetrahydro-2H-pyran-4-yl)pyrimidine-2,4-diamine] gave an EC50 of 1.1 µM.

`Cc1nc(NCc2ccccn2)nc(NC2CCC(C(F)(F)F)CC2)c1C` (stereo not drawn) [Example 31, 5,6-dimethyl-N^2-(pyridin-2-ylmethyl)-N^4-[4-(trifluoromethyl)cyclohexyl]pyrimidine-2,4-diamine] yielded an EC50 greater than 9.6 µM.

The molecule `Cc1nc(NCc2ccccn2)nc(NC2CCC(F)(F)CC2)c1C` [Example 32, N^4-(4,4-difluorocyclohexyl)-5,6-dimethyl-N^2-(pyridin-2-ylmethyl)pyrimidine-2,4-diamine] gave an EC50 of 0.22 µM.

As for `Cc1nc(NCc2ccccn2)nc(NC2CCc3ccccc32)c1C` (stereo not drawn) [Example 33, N^4-(2,3-dihydro-1H-inden-1-yl)-5,6-dimethyl-N^2-(pyridin-2-ylmethyl)pyrimidine-2,4-diamine], the EC50 is 0.18 µM.
